From PubChem BioAssay AID248 (DTP/NCI, 2004)
“And” between values parts separate entries of the source, which are not always exact repeats. Equal values may be shown once. Toxic doses and inconclusive results are not listed.

Tested on: L1210 leukemia ip in BDF1 mice, survival T/C
Assay: NCI In Vivo Anticancer Drug Screen. Data for tumor model L1210 Leukemia (intraperitoneal) in B6D2F1 (BDF1) mice
Conditions: higher = longer survival
Method in brief: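 Transplantable tumor model; survival measured in treated vs vehicle control mice. Value = treated/control.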

[1] = endpoint: mean survival time, dose: 100.0 mg/kg/injection, schedule: Q04DX003 (ip), vehicle: saline
[2] = endpoint: mean survival time, dose: 200.0 mg/kg/injection, schedule: Q04DX003 (ip), vehicle: saline
[3] = endpoint: mean survival time, dose: 400.0 mg/kg/injection, schedule: Q04DX003 (ip), vehicle: saline
[4] = endpoint: mean survival time, dose: 100.0 mg/kg/injection, schedule: Q01DX009 (ip), vehicle: Klucel (hydroxypropylcellulose) (HPC)
[5] = endpoint: mean survival time, dose: 100.0 mg/kg/injection, schedule: Q04DX003 (ip), vehicle: Klucel (hydroxypropylcellulose) (HPC)
[6] = endpoint: mean survival time, dose: 200.0 mg/kg/injection, schedule: Q01DX009 (ip), vehicle: Klucel (hydroxypropylcellulose) (HPC)
[7] = endpoint: mean survival time, dose: 200.0 mg/kg/injection, schedule: Q04DX003 (ip), vehicle: Klucel (hydroxypropylcellulose) (HPC)
[8] = endpoint: mean survival time, dose: 400.0 mg/kg/injection, schedule: Q01DX009 (ip), vehicle: Klucel (hydroxypropylcellulose) (HPC)
[9] = endpoint: mean survival time, dose: 400.0 mg/kg/injection, schedule: Q04DX003 (ip), vehicle: Klucel (hydroxypropylcellulose) (HPC)
[10] = endpoint: mean survival time, dose: 100.0 mg/kg/injection, schedule: Q04DX002 (ip), vehicle: Klucel (hydroxypropylcellulose) (HPC)
[11] = endpoint: mean survival time, dose: 200.0 mg/kg/injection, schedule: Q04DX002 (ip), vehicle: Klucel (hydroxypropylcellulose) (HPC)
[12] = endpoint: mean survival time, dose: 400.0 mg/kg/injection, schedule: Q04DX002 (ip), vehicle: Klucel (hydroxypropylcellulose) (HPC)
[13] = endpoint: mean survival time, dose: 12.5 mg/kg/injection, schedule: Q04DX003 (ip), vehicle: saline
[14] = endpoint: mean survival time, dose: 25.0 mg/kg/injection, schedule: Q04DX003 (ip), vehicle: saline
[15] = endpoint: mean survival time, dose: 100.0 mg/kg/injection, schedule: Q01DX001 (ip), vehicle: saline
[16] = endpoint: mean survival time, dose: 200.0 mg/kg/injection, schedule: Q01DX001 (ip), vehicle: saline

## CCCC[n+]1cccc(C(N)=O)c1
[1]
  T/C: 100 % of control
[2]
  T/C: 100 % of control
[3]
  T/C: 89 % of control

## COc1ccccc1/C=C/c1cnccn1
[4]
  T/C: 98 % of control
[5]
  T/C: 96 % of control
[6]
  T/C: 101 % of control
[7]
  T/C: 102 % of control
[8]
  T/C: 93 % of control
[9]
  T/C: 104 % of control

## CCCOc1ccc(C=Nc2ccc(C)cc2)cc1
[4]
  T/C: 98 % of control
[5]
  T/C: 109 % of control
[6]
  T/C: 116 % of control
[7]
  T/C: 101 % of control
[9]
  T/C: 117 % of control

## CCCCNC(=S)NNC(=O)c1ccncc1
[10]
  T/C: 107 % of control
[11]
  T/C: 95 % of control and 105 % of control
[12]
  T/C: 96 % of control and 98 % of control

## CCCCCC[N+]1(C)CC2C3C=CC(C3)C2C1 (stereo not drawn)
[13]
  T/C: 103 % of control
[14]
  T/C: 97 % of control
endpoint: mean survival time, dose: 50.0 mg/kg/injection, schedule: Q04DX003 (ip), vehicle: saline
  T/C: 97 % of control
endpoint: mean survival time, dose: 75.0 mg/kg/injection, schedule: Q04DX003 (ip), vehicle: saline
  T/C: 92 % of control

## Cc1ccc(-n2nnc3ccccc3c2=O)cc1C
endpoint: mean survival time, dose: 100.0 mg/kg/injection, schedule: Q01DX009 (ip), vehicle: saline
  T/C: 101 % of control
[1]
  T/C: 92 % of control
endpoint: mean survival time, dose: 200.0 mg/kg/injection, schedule: Q01DX009 (ip), vehicle: saline
  T/C: 98 % of control
[2]
  T/C: 108 % of control
endpoint: mean survival time, dose: 400.0 mg/kg/injection, schedule: Q01DX009 (ip), vehicle: saline
  T/C: 104 % of control
[3]
  T/C: 93 % of control

## Nc1ncnc2nc(SC3OC(CO)C(O)C3O)[nH]c12 (stereo not drawn)
endpoint: mean survival time, dose: 150.0 mg/kg/injection, schedule: Q01DX001 (ip), vehicle: saline
  T/C: 100 % of control
endpoint: mean survival time, dose: 300.0 mg/kg/injection, schedule: Q01DX001 (ip), vehicle: saline
  T/C: 100 % of control

## COc1ccc(/C=C(\C(=O)O)c2cccc3ccccc23)cc1
[4]
  T/C: 91 % of control
[10]
  T/C: 100 % of control
[6]
  T/C: 107 % of control
[11]
  T/C: 86 % of control
[12]
  T/C: 104 % of control

## Cc1cc(NCCCCCCCNc2cc(C)nc3cc(N)ccc23)c2ccc(N)cc2n1
endpoint: median survival time, dose: 1.56 mg/kg/injection, schedule: Q01DX009 (ip), vehicle: water
  T/C: 123 % of control
endpoint: median survival time, dose: 6.25 mg/kg/injection, schedule: Q01DX009 (ip), vehicle: water
  T/C: 154 % of control
endpoint: median survival time, dose: 12.5 mg/kg/injection, schedule: Q01DX009 (ip), vehicle: water
  T/C: 194 % of control
endpoint: median survival time, dose: 25.0 mg/kg/injection, schedule: Q01DX009 (ip), vehicle: water
  T/C: 116 % of control

## CC(CCl)NC(=O)Nc1cccc2c1CCCC2 (stereo not drawn)
[4]
  T/C: 102 % of control
[5]
  T/C: 106 % of control
[6]
  T/C: 103 % of control
[7]
  T/C: 106 % of control
[8]
  T/C: 97 % of control
[9]
  T/C: 103 % of control

## CCOC(=O)C1=NN(c2ccccc2)C(=O)C1N=Nc1ccc(S(=O)(=O)Nc2onc(C)c2C)cc1 (stereo not drawn)
[15]
  T/C: 104 % of control
[16]
  T/C: 98 % of control
endpoint: mean survival time, dose: 400.0 mg/kg/injection, schedule: Q01DX001 (ip), vehicle: saline
  T/C: 107 % of control

## O=C(NO)c1ccc([N+](=O)[O-])cc1
[4]
  T/C: 92 % of control
endpoint: mean survival time, dose: 180.0 mg/kg/injection, schedule: Q01DX015 (ip), vehicle: water
  T/C: 101 % of control
[6]
  T/C: 103 % of control
endpoint: mean survival time, dose: 270.0 mg/kg/injection, schedule: Q01DX015 (ip), vehicle: water
  T/C: 107 % of control and 117 % of control and 119 % of control
endpoint: mean survival time, dose: 400.0 mg/kg/injection, schedule: Q01DX001 (ip), vehicle: water
  T/C: 97 % of control
[8]
  T/C: 109 % of control
endpoint: mean survival time, dose: 600.0 mg/kg/injection, schedule: Q01DX001 (ip), vehicle: water
  T/C: 97 % of control

## O=C(NO)c1ccccc1.O=C(NO)c1ccccc1.O=C(NO)c1ccccc1.[Fe]
endpoint: mean survival time, dose: 100.0 mg/kg/injection, schedule: Q04DX003 (ip), vehicle: DMSO
  T/C: 93 % of control

## CN1C=c2c3c(ccc2=C2C=CC4C=C5OCOC5=CC4=C21)OCO3 (stereo not drawn)
endpoint: mean survival time, dose: 2.0 mg/kg/injection, schedule: Q01DX015 (ip), vehicle: saline
  T/C: 97 % of control
endpoint: mean survival time, dose: 4.0 mg/kg/injection, schedule: Q01DX015 (ip), vehicle: saline
  T/C: 91 % of control
endpoint: mean survival time, dose: 5.0 mg/kg/injection, schedule: Q01DX001 (ip), vehicle: saline
  T/C: 96 % of control
endpoint: mean survival time, dose: 6.25 mg/kg/injection, schedule: Q04DX003 (ip), vehicle: saline
  T/C: 92 % of control
endpoint: mean survival time, dose: 7.5 mg/kg/injection, schedule: Q01DX009 (ip), vehicle: saline
  T/C: 97 % of control
endpoint: mean survival time, dose: 8.0 mg/kg/injection, schedule: Q01DX015 (ip), vehicle: saline
  T/C: 92 % of control
endpoint: mean survival time, dose: 10.0 mg/kg/injection, schedule: Q01DX001 (ip), vehicle: saline
  T/C: 96 % of control
[13]
  T/C: 88 % of control
endpoint: mean survival time, dose: 15.0 mg/kg/injection, schedule: Q01DX009 (ip), vehicle: saline
  T/C: 100 % of control
endpoint: mean survival time, dose: 16.0 mg/kg/injection, schedule: Q01DX015 (ip), vehicle: saline
  T/C: 100 % of control
endpoint: mean survival time, dose: 20.0 mg/kg/injection, schedule: Q01DX001 (ip), vehicle: saline
  T/C: 94 % of control
[14]
  T/C: 95 % of control and 90 % of control
endpoint: mean survival time, dose: 30.0 mg/kg/injection, schedule: Q01DX009 (ip), vehicle: saline
  T/C: 102 % of control

## COc1cc(/C=C\[N+](=O)[O-])ccc1OCc1ccccc1
endpoint: mean survival time, dose: 50.0 mg/kg/injection, schedule: Q01DX009 (ip), vehicle: Klucel (hydroxypropylcellulose) (HPC)
  T/C: 94 % of control
endpoint: mean survival time, dose: 50.0 mg/kg/injection, schedule: Q04DX003 (ip), vehicle: Klucel (hydroxypropylcellulose) (HPC)
  T/C: 98 % of control
[4]
  T/C: 103 % of control
[5]
  T/C: 104 % of control
[6]
  T/C: 95 % of control
[7]
  T/C: 91 % of control

## CCOC(=O)C(C#N)C1c2ccccc2Nc2ccccc21 (stereo not drawn)
endpoint: mean survival time, dose: 50.0 mg/kg/injection, schedule: Q01DX009 (ip), vehicle: saline with Tween-80
  T/C: 98 % of control
endpoint: mean survival time, dose: 100.0 mg/kg/injection, schedule: Q01DX009 (ip), vehicle: saline with Tween-80
  T/C: 95 % of control
endpoint: mean survival time, dose: 200.0 mg/kg/injection, schedule: Q01DX009 (ip), vehicle: saline with Tween-80
  T/C: 91 % of control

## CC(C)(C)C(=O)OCn1cnc(=N)c2[nH]cnc21
[5]
  T/C: 100 % of control
[7]
  T/C: 108 % of control

## Cc1ccc(NCCN(C)C)c2c(=O)c3ccccc3sc12
endpoint: mean survival time, dose: 9.3 mg/kg/injection, schedule: Q01DX Z (ip), vehicle: saline
  T/C: 104 % of control
endpoint: mean survival time, dose: 14.0 mg/kg/injection, schedule: Q01DX Z (ip), vehicle: saline
  T/C: 108 % of control
endpoint: mean survival time, dose: 21.0 mg/kg/injection, schedule: Q01DX Z (ip), vehicle: saline
  T/C: 118 % of control
endpoint: mean survival time, dose: 28.0 mg/kg/injection, schedule: Q01DX Z (ip), vehicle: saline
  T/C: 117 % of control
endpoint: mean survival time, dose: 42.0 mg/kg/injection, schedule: Q01DX Z (ip), vehicle: saline
  T/C: 163 % of control
endpoint: mean survival time, dose: 50.0 mg/kg/injection, schedule: Q01DX001 (ip), vehicle: saline
  T/C: 101 % of control
endpoint: mean survival time, dose: 84.0 mg/kg/injection, schedule: Q01DX Z (ip), vehicle: saline
  T/C: 115 % of control
endpoint: mean survival time, dose: 89.0 mg/kg/injection, schedule: Q01DX001 (ip), vehicle: saline
  T/C: 100 % of control
endpoint: mean survival time, dose: 93.0 mg/kg/injection, schedule: Q01DX Z (ip), vehicle: saline
  T/C: 101 % of control
[15]
  T/C: 109 % of control
endpoint: mean survival time, dose: 100.0 mg/kg/injection, schedule: Q01DX Z (ip), vehicle: saline
  T/C: 107 % of control
endpoint: mean survival time, dose: 125.0 mg/kg/injection, schedule: Q01DX Z (ip), vehicle: carboxymethylcellulose (CMC)
  T/C: 151 % of control
endpoint: mean survival time, dose: 133.0 mg/kg/injection, schedule: Q01DX001 (ip), vehicle: saline
  T/C: 117 % of control
[16]
  T/C: 155 % of control and 212 % of control

## O=C(CC(C(=O)Nc1ccccc1)C(O)(c1ccccc1)c1ccccc1)Nc1ccccc1 (stereo not drawn)
endpoint: mean survival time, dose: 100.0 mg/kg/injection, schedule: Q01DX001 (ip), vehicle: carboxymethylcellulose (CMC)
  T/C: 95 % of control
endpoint: mean survival time, dose: 200.0 mg/kg/injection, schedule: Q01DX001 (ip), vehicle: carboxymethylcellulose (CMC)
  T/C: 91 % of control
endpoint: mean survival time, dose: 400.0 mg/kg/injection, schedule: Q01DX001 (ip), vehicle: carboxymethylcellulose (CMC)
  T/C: 95 % of control

## OC[CH2][Hg][I]
endpoint: mean survival time, dose: 1.56 mg/kg/injection, schedule: Q01DX009 (ip), vehicle: Klucel (hydroxypropylcellulose) (HPC)
  T/C: 88 % of control
endpoint: mean survival time, dose: 6.25 mg/kg/injection, schedule: Q01DX009 (ip), vehicle: Klucel (hydroxypropylcellulose) (HPC)
  T/C: 93 % of control
